Converted amounts (≈) assume the structure as drawn. Where no end group is shown, it is not given here.
How the values were obtained:
Test in all cases: microbe, parasite or virus in culture
Format in all cases: cell-based
Bacillus megaterium = system: Bacillus megaterium
Description: (§1) The synthesized peptides were screened for antibacterial activity against five strains of G+ bacteria: B. subtilis (Bs, ATCC 23857), C. glutamicum (Cg, ATCC 13032), S. aureus (Sa, ATCC 9144), Micrococcus luteus (Ml), B. megaterium (Bm) (the last two were obtained from professor Olaf B. Styrvold, UiT The Arctic University of Norway).
(§2) Two strains of G- bacteria, P. aeruginosa (Pa, ATCC 27853) and E. coli (Ec, ATCC 25922), were also used. Cultures stored at -80 °C in glycerol were transferred to Müller–Hinton plates (MH, Difco Laboratories, Detroit, MI, USA) and incubated for 24 h at 35 °C. Colonies of each strain were transferred to 5 mL liquid MH medium and left shaking (600 rpm) at room temperature overnight. An aliquot of actively growing bacteria (20 µL) was inoculated in 5 mL MH medium and left shaking for 2 h at room temperature. In order to have a sensitive bioassay, the bacterial cultures were diluted with medium to only 2.5–3 × 10^4 bacteria/mL and an aliquot of 50 µL was added to each well in 96 microwell plates (Thermo Fisher Scientific, Roskilde, Denmark) preloaded with peptide solution (50 µL). The antibacterial assays were performed as previously described. The microtiter plates were incubated for 24 h at 35 °C with optical density (595 nm) recorded every hour using an Envision 2103 multilabel reader, controlled by a Wallac Envision manager (PerkinElmer, Waltham, MA, USA). The minimum inhibitory concentration (MIC) was defined as the sample concentration showing an optical density less than 10% of the negative (growth) control, consisting of bacteria and MQ-H2O. Oxytetracycline (concentrations ranging from 20–0.02 µg/mL, Sigma-Aldrich) and indolicidin (concentration ranging from 200–0.2 µg/mL, Sigma-Aldrich) served as a positive (inhibition) control. The synthetic peptides were tested for antibacterial activity in concentrations ranging from 250 to 0.5 µg/mL in two-fold dilutions. All tests were performed in triplicates.

[1] = system: Bacillus subtilis (ATCC 23857)
Description: as §1, §2

[2] = system: Corynebacterium glutamicum (ATCC 13032)
Description: as §1, §2

Micrococcus luteus = system: Micrococcus luteus
Description: as §1, §2

[3] = system: Staphylococcus aureus (ATCC 9144)
Description: as §1, §2

[4] = system: Escherichia coli (ATCC 25922)
Description: as §2

[5] = system: Pseudomonas aeruginosa (ATCC 27853)
Description: as §2

Aureobasidium pullulans = system: Aureobasidium pullulans
Description: (§3) StAMP-1–11 were screened for antifungal activity against C. albicans (Ca, ATCC 10231), A. pullulans (Ap) and Rhodotorula sp. (Rh) (the last two were obtained from professor Arne Tronsmo, The Norwegian University of Life Sciences, Ås, Norway). The antifungal assay was performed as previously described with a few modifications. Briefly, fungal spores were dissolved in potato dextrose broth (Difco Laboratories) with 2% D(+)-glucose (Merck, Darmstadt, Germany) to a concentration of 4 × 10^5 spores/mL. The spores (50 µL) were inoculated on 96 microwell plates (Thermo Fisher Scientific) containing the synthetic peptides (50 µL) and controls (water or antibiotic). The peptides were diluted in MQ-H2O at final concentrations ranging from 250–3.9 µg/mL in two-fold serial dilutions. Triclosan (Sigma-Aldrich, Steinheim, Germany) was used as a positive (antifungal) control (32–0.25 µg/mL), and MQ-H2O as a negative (growth) control. Cultures were grown in room temperature for 24 h (Ca) and 48 h (Ap and Rh). Growth inhibition was determined by measuring OD values at 600 nm by a microplate reader (Synergy H1 Hybrid Multi-Mode Reader, BioTek, Winooski, VT, USA). […] All experiments were done in triplicate.

[6] = system: Candida albicans (ATCC 10231)
Description: as §3

Rhodotorula sp. = system: Rhodotorula sp.
Description: as §3

[7] = potato dextrose broth with 2% glucose, room temperature 48 h, OD 600 nm, >90% inhibition, triplicate

Compound | Antimicrobial Activity (MIC) Bm (Bacillus megaterium; Bacillus, 24 h) | Antimicrobial Activity (MIC) Bs ([1]; ATCC 23857, 24 h) | Antimicrobial Activity (MIC) Cg ([2]; ATCC 13032, 24 h) | Antimicrobial Activity (MIC) Ml (Micrococcus luteus; 24 h) | Antimicrobial Activity (MIC) Sa ([3]; ATCC 9144, 24 h) | Antimicrobial Activity (MIC) Ec ([4]; ATCC 25922, 24 h) | Antimicrobial Activity (MIC) Pa ([5]; ATCC 27853, 24 h) | Antimicrobial Activity (MIC) Ap (Aureobasidium pullulans; 48 h) | Antimicrobial Activity (MIC) Ca ([6]; ATCC 10231, 24 h) | Antimicrobial Activity (MIC) Rh (Rhodotorula sp.; 48 h) | also measured
CN(C)[C@@H]1C(O)=C(C(N)=O)C(=O)[C@@]2(O)C(O)=C3C(=O)c4c(O)cccc4[C@@](C)(O)[C@H]3[C@H](O)[C@@H]12 [Oxytetracycline, reference compound] | – | – | – | – | – | – | – | – | – | – | MIC (Bacillus megaterium; Priestia megaterium, Bacillus megaterium, MH medium, 24 h at 35 °C, OD 595 nm <10% of growth control, triplicates, read-out: Antimicrobial Activity (MIC) Bm): 0.6 µg/mL (≈ 1.3 µM); MIC ([1]; ATCC23857, Bacillus subtilis, MH medium, 24 h at 35 °C, OD 595 nm <10% of growth control, triplicates, read-out: Antimicrobial Activity (MIC) Bs): 10 µg/mL (≈ 21.7 µM); MIC ([2]; ATCC13032, Corynebacterium glutamicum, MH medium, 24 h at 35 °C, OD 595 nm <10% of growth control, triplicates, read-out: Antimicrobial Activity (MIC) Cg): 0.2 µg/mL (≈ 0.434 µM); MIC (Micrococcus luteus; Micrococcus luteus, MH medium, 24 h at 35 °C, OD 595 nm <10% of growth control, triplicates, read-out: Antimicrobial Activity (MIC) Ml): 1.3 µg/mL (≈ 2.82 µM); MIC ([3]; ATCC9144, Staphylococcus aureus, MH medium, 24 h at 35 °C, OD 595 nm <10% of growth control, triplicates, read-out: Antimicrobial Activity (MIC) Sa): 0.04 µg/mL (≈ 0.0869 µM); MIC ([4]; ATCC25922, Escherichia coli, MH medium, 24 h at 35 °C, OD 595 nm <10% of growth control, triplicates, read-out: Antimicrobial Activity (MIC) Ec): 1.3 µg/mL (≈ 2.82 µM); MIC ([5]; ATCC27853, Pseudomonas aeruginosa, MH medium, 24 h at 35 °C, OD 595 nm <10% of growth control, triplicates, read-out: Antimicrobial Activity (MIC) Pa): 2.5 µg/mL (≈ 5.43 µM)
CC[C@H](C)[C@H](N)C(=O)N[C@@H](CC(C)C)C(=O)N1CCC[C@H]1C(=O)N[C@@H](Cc1c[nH]c2ccccc12)C(=O)N[C@@H](CCCCN)C(=O)N[C@@H](Cc1c[nH]c2ccccc12)C(=O)N1CCC[C@H]1C(=O)N[C@@H](Cc1c[nH]c2ccccc12)C(=O)N[C@@H](Cc1c[nH]c2ccccc12)C(=O)N1CCC[C@H]1C(=O)N[C@@H](Cc1c[nH]c2ccccc12)C(=O)N[C@@H](CCCNC(=N)N)C(=O)N[C@@H](CCCNC(=N)N)C(N)=O [Indolicidin, reference compound] | – | – | – | – | – | – | – | – | – | – | Antimicrobial Activity (MIC) Bm (Bacillus megaterium; Bacillus megaterium, MH medium, 24 h at 35 °C, OD 595 nm <10% of growth control, triplicates): 3.1 µg/mL; Antimicrobial Activity (MIC) Bs ([1]; Bacillus subtilis, MH medium, 24 h at 35 °C, OD 595 nm <10% of growth control, triplicates): 6.3 µg/mL; Antimicrobial Activity (MIC) Cg ([2]; Corynebacterium glutamicum, MH medium, 24 h at 35 °C, OD 595 nm <10% of growth control, triplicates): 1.6 µg/mL; Antimicrobial Activity (MIC) Ml (Micrococcus luteus; Micrococcus luteus, MH medium, 24 h at 35 °C, OD 595 nm <10% of growth control, triplicates): 12.5 µg/mL; Antimicrobial Activity (MIC) Sa ([3]; Staphylococcus aureus, MH medium, 24 h at 35 °C, OD 595 nm <10% of growth control, triplicates): 12.5 µg/mL; Antimicrobial Activity (MIC) Ec ([4]; Escherichia coli, MH medium, 24 h at 35 °C, OD 595 nm <10% of growth control, triplicates): 25.0 µg/mL; Antimicrobial Activity (MIC) Pa ([5]; Pseudomonas aeruginosa, MH medium, 24 h at 35 °C, OD 595 nm <10% of growth control, triplicates): >250 µg/mL; Antimicrobial Activity (MIC) Ap (Aureobasidium pullulans; [7]): 25.0 µg/mL; Antimicrobial Activity (MIC) Ca ([6]; potato dextrose broth with 2% glucose, room temperature 24 h, OD 600 nm, >90% inhibition, triplicate): 100 µg/mL; Antimicrobial Activity (MIC) Rh (Rhodotorula sp.; [7]): 25.0 µg/mL
GKKWWGWKAK-NH2 [StAMP-5] | 1.0 µg/mL | 15.6 µg/mL | 2.0 µg/mL | 15.6 µg/mL | >250 µg/mL | 31.3 µg/mL | 250 µg/mL | 31.3 µg/mL | 31.3 µg/mL | 15.6 µg/mL | –
GRRWWWWRAR-NH2 [StAMP-10] | 3.9 µg/mL | 7.8 µg/mL | 7.8 µg/mL | 15.6 µg/mL | 62.5 µg/mL | 15.6 µg/mL | 31.3 µg/mL | 62.5 µg/mL | 62.5 µg/mL | 15.6 µg/mL | –
GRRPLLLRAR-NH2 [StAMP-11] | 7.8 µg/mL | >250 µg/mL | 31.3 µg/mL | 62.5 µg/mL | >250 µg/mL | >250 µg/mL | >250 µg/mL | 250 µg/mL | 125 µg/mL | 31.3 µg/mL | –
GKKPWGWKAK-NH2 [StAMP-3] | 3.9 µg/mL | >250 µg/mL | 15.6 µg/mL | 250 µg/mL | >250 µg/mL | >250 µg/mL | >250 µg/mL | 62.5 µg/mL | 125 µg/mL | 62.5 µg/mL | –
GKKPGGWKAK-NH2 [StAMP-1] | 250 µg/mL | >250 µg/mL | 250 µg/mL | >250 µg/mL | >250 µg/mL | >250 µg/mL | >250 µg/mL | >250 µg/mL | >250 µg/mL | >250 µg/mL | –
Oc1cc(Cl)ccc1Oc1ccc(Cl)cc1Cl [Triclosan, reference compound] | – | – | – | – | – | – | – | – | – | – | MIC (Aureobasidium pullulans; Aureobasidium pullulans, 48 h, read-out: Antimicrobial Activity (MIC) Ap): 3.1 µg/mL; MIC ([6]; Candida albicans, ATCC10231, 24 h, read-out: Antimicrobial Activity (MIC) Ca): 3.1 µg/mL; MIC (Rhodotorula sp.; Rhodotorula, 48 h, read-out: Antimicrobial Activity (MIC) Rh): 1.6 µg/mL
